{
  "source": "ChEMBL document CHEMBL1126223",
  "about": "“Adenosine deaminase inhibitors. Synthesis and biological evaluation of C1' and nor-C1' derivatives of (+)-erythro-9-(2(S)-hydroxy-3(R)-nonyl)adenine” (J Med Chem, 1992)",
  "data": [
    {"target": "T1, Adenosine deaminase (Bos taurus, UniProt P56658)", "T1 sequence (P56658 whole entry)": "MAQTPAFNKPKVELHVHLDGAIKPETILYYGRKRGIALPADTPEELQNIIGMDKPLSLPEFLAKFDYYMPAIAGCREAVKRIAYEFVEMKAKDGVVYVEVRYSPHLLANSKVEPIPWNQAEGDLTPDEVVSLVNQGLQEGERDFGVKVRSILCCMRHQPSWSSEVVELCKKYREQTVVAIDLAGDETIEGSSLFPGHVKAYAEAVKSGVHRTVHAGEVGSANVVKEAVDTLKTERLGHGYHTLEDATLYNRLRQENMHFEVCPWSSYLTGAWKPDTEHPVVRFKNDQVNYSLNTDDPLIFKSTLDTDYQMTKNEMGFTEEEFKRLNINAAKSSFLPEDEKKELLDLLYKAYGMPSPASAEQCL", "experiment": "Binding affinity (Ki) at calf intestinal adenosine deaminase.", "units": {"Ki": "nM"}, "values": [
      {"molecule": "CCCCCC[C@@H]1[C@@H](O)C[n+]2cnc(N)c3ncn1c32", "Ki": 1000},
      {"molecule": "CCCCCC[C@H](CBr)n1cnc2c(N)ncnc21", "Ki": 600},
      {"molecule": "CCCCCC[C@@H]([C@@H](C)O)n1cnc2c(N)ncnc21", "note": "[EHNA]", "Ki": 4},
      {"molecule": "CCCCCC[C@H](CCl)n1cnc2c(N)ncnc21", "Ki": 320},
      {"molecule": "CCCCCC[C@H](CN=[N+]=[N-])n1cnc2c(N)ncnc21", "Ki": 1300}
    ]},
    {"target": "T1, Adenosine deaminase", "experiment": "Binding affinity (Ki) at calf intestinal Adenosine deaminase", "units": {"Ki": "nM"}, "values": [
      {"molecule": "CCCCCC[C@H](CF)n1cnc2c(N)ncnc21", "Ki": 1600},
      {"molecule": "CCCCCC[C@H]([C@@H]1CO1)n1cnc2c(N)ncnc21", "Ki": 890},
      {"molecule": "CCCCCC[C@H]([C@@H](O)CO)n1cnc2c(N)ncnc21", "Ki": 56},
      {"molecule": "CCCCCC[C@H](CO)n1cnc2c(N)ncnc21", "Ki": 47},
      {"molecule": "CCCCCC[C@H]([C@H](C)O)n1cnc2c(N)ncnc21", "note": "[(+)-EHNA]", "Ki": 2}
    ]}
  ]
}
